Test results from patent publication US10391106B2, “19-nor C3, 3-disubstituted C21-C-bound heteroaryl steroids and methods of use thereof” (Sage Therapeutics, Inc., priority 2013, dated 2019).

How the values were obtained:
GABAA receptor α1β2γ2 = molecular target: T1, GABAA receptor α1β2γ2 (Homo sapiens, UniProt P14867+P47870); experiment: Patch clamp electrophysiology, Qpatch in Ltk cells; format: cell-based; conditions: 10 μM test article, potentiation of GABA EC20 (2 μM) current, read-out: GABA (α1β2γ2) Qpatch in Ltk, % efficacy at 10 μM
T1 construct: expressed in transfected cells; host or cells: LTK cells (stably transfected)
T1 sequence (P14867 28-456): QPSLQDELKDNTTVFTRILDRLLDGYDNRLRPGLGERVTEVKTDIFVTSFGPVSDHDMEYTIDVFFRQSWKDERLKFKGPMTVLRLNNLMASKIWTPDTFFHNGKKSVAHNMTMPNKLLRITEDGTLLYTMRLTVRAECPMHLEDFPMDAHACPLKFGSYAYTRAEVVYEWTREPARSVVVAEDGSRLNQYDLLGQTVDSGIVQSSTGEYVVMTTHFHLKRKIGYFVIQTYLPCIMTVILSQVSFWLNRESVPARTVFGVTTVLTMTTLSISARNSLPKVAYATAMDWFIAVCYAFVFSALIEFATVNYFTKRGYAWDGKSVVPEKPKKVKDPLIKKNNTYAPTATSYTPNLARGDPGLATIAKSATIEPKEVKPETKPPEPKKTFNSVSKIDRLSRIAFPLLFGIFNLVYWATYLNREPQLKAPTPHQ
T1 sequence (P47870 25-512 limits assumed): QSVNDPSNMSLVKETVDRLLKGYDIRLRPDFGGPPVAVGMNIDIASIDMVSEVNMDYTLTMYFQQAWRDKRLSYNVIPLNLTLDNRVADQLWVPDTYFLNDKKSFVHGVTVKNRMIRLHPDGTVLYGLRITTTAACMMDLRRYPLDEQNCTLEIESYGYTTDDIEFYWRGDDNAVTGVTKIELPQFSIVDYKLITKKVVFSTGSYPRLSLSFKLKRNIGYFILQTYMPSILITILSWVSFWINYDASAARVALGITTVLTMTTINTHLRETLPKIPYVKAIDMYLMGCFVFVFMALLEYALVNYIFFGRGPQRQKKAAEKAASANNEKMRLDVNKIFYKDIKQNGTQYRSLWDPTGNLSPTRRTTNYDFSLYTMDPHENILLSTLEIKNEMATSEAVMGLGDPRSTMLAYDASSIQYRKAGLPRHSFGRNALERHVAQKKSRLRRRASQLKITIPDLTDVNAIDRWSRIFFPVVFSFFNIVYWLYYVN
T1 sequence (P18507 40-475 partner): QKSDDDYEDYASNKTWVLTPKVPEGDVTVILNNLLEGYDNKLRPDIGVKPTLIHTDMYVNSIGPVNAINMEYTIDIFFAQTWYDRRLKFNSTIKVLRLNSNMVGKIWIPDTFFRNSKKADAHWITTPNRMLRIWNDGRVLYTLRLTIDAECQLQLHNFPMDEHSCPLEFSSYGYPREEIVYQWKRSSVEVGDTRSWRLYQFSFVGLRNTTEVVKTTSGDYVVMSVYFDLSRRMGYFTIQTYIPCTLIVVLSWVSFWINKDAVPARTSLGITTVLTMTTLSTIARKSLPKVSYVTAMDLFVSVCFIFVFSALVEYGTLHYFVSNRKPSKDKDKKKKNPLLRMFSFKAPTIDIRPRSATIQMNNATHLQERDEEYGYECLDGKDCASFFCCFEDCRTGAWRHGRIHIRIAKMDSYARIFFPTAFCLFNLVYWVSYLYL
Description: (§1) Patch Clamp Electrophysiology of Recombinant α1β2γ2 and α4β3δ GABAA Receptors
(§2) Cellular electrophysiology is used to measure the pharmacological properties of our GABAA receptor modulators in heterologous cell systems. Each compound is tested for its ability to affect GABA mediated currents at a submaximal agonist dose (GABA EC20=2 μM). LTK cells are stably transfected with the α1β2γ2 subunits of the GABA receptor and CHO cells are transiently transfected with the α4β3δ subunits via the Lipofecatamine method. Cells were passaged at a confluence of about 50-80% and then seeded onto 35 mm sterile culture dishes containing 2 ml culture complete medium without antibiotics or antimycotics. Confluent clusters of cells are electrically coupled (Pritchett et al, Science, 1988, 242, 1306-1308.). Because responses in distant cells are not adequately voltage clamped and because of uncertainties about the extent of coupling (Verdoorn et al., Neuron 1990, 4, 919-928.), cells were cultivated at a density that enables the recording of single cells (without visible connections to other cells).
Whole cell currents were measured with HEKA EPC-10 amplifiers using PatchMaster software or by using the high throughput QPatch platform (Sophion). Bath solution for all experiments contained (in mM): NaCl 137 mM, KCl 4 mM, CaCl2 1.8 mM, MgCl2 1 mM, HEPES 10 mM, D-Glucose 10 mM, pH (NaOH) 7.4.. In some cases 0.005% cremophor was also added. Intracellular (pipette) solution contained: KCl 130 mM, MgCl2 1 mM, Mg-ATP 5 mM, HEPES 10 mM, EGTA 5 mM, pH 7.2. During experiments, cells and solutions were maintained at room temperature (19° C.-30° C.). For manual patch clamp recordings, cell culture dishes were placed on the dish holder of the microscope and continuously perfused (1 ml/min) with bath solution. After formation of a Gigaohm seal between the patch electrodes and the cell (pipette resistance range: 2.5 MΩ-6.0 MΩ; seal resistance range:>1 GΩ) the cell membrane across the pipette tip was ruptured to assure electrical access to the cell interior (whole-cell patch-configuration). For experiments using the QPatch system, cells were transferred as suspension to the QPatch system in the bath solution and automated whole cell recordings were performed.
Cells were voltage clamped at a holding potential of −80 mV. For the analysis of test articles, GABA receptors were stimulated by 2 μM GABA after sequential pre-incubation of increasing concentrations of the test article. Pre-incubation duration was 30 s and the duration of the GABA stimulus was 2 s. Test articles were dissolved in DMSO to form stock solutions (10 mM). Test articles were diluted to 0.01, 0.1, 1, and 10 μM in bath solution. All concentrations of test articles were tested on each cell. The relative percentage potentiation was defined as the peak amplitude in response to GABA EC20 in the presence of the test article divided by the peak amplitude in response to GABA EC20 alone, multiplied by 100.

GABAA receptor α4β3δ = molecular target: T2, GABAA receptor α4β3δ (Homo sapiens, UniProt P28472+P48169); experiment: Patch clamp electrophysiology, manual patch in CHO cells; format: cell-based; conditions: 10 μM test article, potentiation of GABA EC20 (2 μM) current, read-out: GABA (α4β3δ) Manual patch in CHO, % efficacy at 10 μM
T2 construct: expressed in transfected cells; host or cells: CHO cells (transiently transfected, Lipofectamine)
T2 sequence (P48169 36-554): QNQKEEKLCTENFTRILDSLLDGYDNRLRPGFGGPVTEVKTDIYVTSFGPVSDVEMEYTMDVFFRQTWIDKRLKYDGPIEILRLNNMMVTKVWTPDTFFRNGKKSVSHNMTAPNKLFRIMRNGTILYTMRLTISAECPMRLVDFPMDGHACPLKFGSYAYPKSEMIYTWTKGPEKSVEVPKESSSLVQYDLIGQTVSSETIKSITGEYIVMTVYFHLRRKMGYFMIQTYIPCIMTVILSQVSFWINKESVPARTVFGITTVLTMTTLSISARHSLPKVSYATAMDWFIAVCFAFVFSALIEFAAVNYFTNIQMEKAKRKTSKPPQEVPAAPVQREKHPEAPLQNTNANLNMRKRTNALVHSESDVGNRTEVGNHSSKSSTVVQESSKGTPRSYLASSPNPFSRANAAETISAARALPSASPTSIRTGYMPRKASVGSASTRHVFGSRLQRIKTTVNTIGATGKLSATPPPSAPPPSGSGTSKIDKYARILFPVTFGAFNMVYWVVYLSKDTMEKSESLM
T2 sequence (P28472 26-473): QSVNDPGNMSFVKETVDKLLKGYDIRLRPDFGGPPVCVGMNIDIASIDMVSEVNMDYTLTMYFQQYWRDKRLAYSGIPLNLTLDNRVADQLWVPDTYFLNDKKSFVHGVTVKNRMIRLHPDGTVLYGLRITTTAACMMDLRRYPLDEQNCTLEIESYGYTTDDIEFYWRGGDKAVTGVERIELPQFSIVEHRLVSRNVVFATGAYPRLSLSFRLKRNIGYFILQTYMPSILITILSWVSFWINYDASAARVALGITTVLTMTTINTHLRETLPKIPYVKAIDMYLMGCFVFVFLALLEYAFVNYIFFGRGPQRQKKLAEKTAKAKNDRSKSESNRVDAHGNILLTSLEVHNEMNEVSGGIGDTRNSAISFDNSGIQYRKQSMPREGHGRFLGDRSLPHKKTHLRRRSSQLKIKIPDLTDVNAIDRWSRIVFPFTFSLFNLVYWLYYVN
T2 sequence (O14764 25-452 partner): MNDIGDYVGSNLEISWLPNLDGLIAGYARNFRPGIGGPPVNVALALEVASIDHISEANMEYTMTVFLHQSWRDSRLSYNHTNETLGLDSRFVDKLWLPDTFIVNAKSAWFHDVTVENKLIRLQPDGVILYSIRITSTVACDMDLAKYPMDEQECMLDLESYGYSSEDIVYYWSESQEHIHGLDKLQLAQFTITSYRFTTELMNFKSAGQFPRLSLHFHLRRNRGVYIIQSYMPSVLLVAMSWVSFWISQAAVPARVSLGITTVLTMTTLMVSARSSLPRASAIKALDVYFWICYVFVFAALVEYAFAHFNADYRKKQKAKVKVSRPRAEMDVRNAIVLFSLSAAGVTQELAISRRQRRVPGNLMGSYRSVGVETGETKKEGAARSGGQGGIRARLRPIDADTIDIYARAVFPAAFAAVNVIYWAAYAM
Description: as §1, §2
Whole cell currents were measured with HEKA EPC-10 amplifiers using PatchMaster software or by using the high throughput QPatch platform (Sophion). Bath solution for all experiments contained (in mM): NaCl 137 mM, KCl 4 mM, CaCl2 1.8 mM, MgCl2 1 mM, HEPES 10 mM, D-Glucose 10 mM, pH (NaOH) 7.4.. […]

[1] = molecular target: GABAA-R (rat brain cortical membranes); experiment: Steroid inhibition of [35S]-TBPS binding (radioligand displacement); conditions: in the presence of 5 μM GABA
Description: Steroid Inhibition of TBPS Binding
[35S]-t-Butylbicyclophosphorothionate (TBPS) binding assays using rat brain cortical membranes in the presence of 5 μM GABA has been described (Gee et al, J. Pharmacol. Exp. Ther. 1987, 241, 346-353; Hawkinson et al, Mol. Pharmacol. 1994, 46, 977-985; Lewin, A. H et al., Mol. Pharmacol. 1989, 35, 189-194).
Briefly, cortices are rapidly removed following decapitation of carbon dioxide-anesthetized Sprague-Dawley rats (200-250 g). The cortices are homogenized in 10 volumes of ice-cold 0.32 M sucrose using a glass/teflon homogenizer and centrifuged at 1500×g for 10 min at 4° C. The resultant supernatants are centrifuged at 10,000×g for 20 min at 4° C. to obtain the P2 pellets. The P2 pellets are resuspended in 200 mM NaCl/50 mM Na-K phosphate pH 7.4 buffer and centrifuged at 10,000×g for 10 min at 4° C. This washing procedure is repeated twice and the pellets are resuspended in 10 volumes of buffer. Aliquots (100 μL) of the membrane suspensions are incubated with 3 nM [^35S]-TBPS and 5 μL aliquots of test drug dissolved in dimethyl sulfoxide (DMSO) (final 0.5%) in the presence of 5 μM GABA. The incubation is brought to a final volume of 1.0 mL with buffer. […] Following a 90 min incubation at room temp, the assays are terminated by filtration through glass fiber filters (Schleicher and Schuell No. 32) using a cell harvester (Brandel) and rinsed three times with ice-cold buffer. Filter bound radioactivity is measured by liquid scintillation spectrometry. Non-linear curve fitting of the overall data for each drug averaged for each concentration is done using Prism (GraphPad). […] The concentration of test compound producing 50% inhibition (IC50) of specific binding and the maximal extent of inhibition (Imax) are determined for the individual experiments with the same model used for the overall data and then the means ±SEM.s of the individual experiments are calculated.
Various compounds are or can be screened to determine their potential as modulators of [^35S]-TBPS binding in vitro. These assays are or can be performed in accordance with the above discussed procedures.

Structure (SMILES)	Emax at 10 µM (GABAA receptor α1β2γ2) [%]	Emax at 10 µM (GABAA receptor α4β3δ) [%]	IC50 [1] [nM]
Cc1nc(CC(=O)[C@H]2CC[C@H]3[C@@H]4CC[C@@H]5C[C@](C)(O)CC[C@@H]5[C@H]4CC[C@]23C)oc1C [SA-1]	> 500	10 to 100	< 50
C[C@@]1(O)CC[C@H]2[C@H](CC[C@@H]3[C@@H]2CC[C@]2(C)[C@@H](C(=O)Cc4ccccn4)CC[C@@H]32)C1 [SA-2]	100 to 500	100 to 500	< 50
Cn1ccnc1CC(=O)[C@H]1CC[C@H]2[C@@H]3CC[C@@H]4C[C@](C)(O)CC[C@@H]4[C@H]3CC[C@]12C [SA-3]	100 to 500	–	100 to 500
Cc1cccc(CC(=O)[C@H]2CC[C@H]3[C@@H]4CC[C@@H]5C[C@](C)(O)CC[C@@H]5[C@H]4CC[C@]23C)n1 [SA-4]	100 to 500	–	< 50
C[C@@]1(O)CC[C@H]2[C@H](CC[C@@H]3[C@@H]2CC[C@]2(C)[C@@H](C(=O)Cc4ccccc4)CC[C@@H]32)C1 [SA-5]	–	–	< 50
C[C@@]1(O)CC[C@H]2[C@H](CC[C@@H]3[C@@H]2CC[C@]2(C)[C@@H](C(=O)Cc4nccs4)CC[C@@H]32)C1 [SA-7]	> 500	–	< 50
Cc1nc(CC(=O)[C@H]2CC[C@H]3[C@@H]4CC[C@@H]5C[C@](C)(O)CC[C@@H]5[C@H]4CC[C@]23C)sc1C [SA-8]	–	–	50 to 100
C[C@@]1(O)CC[C@H]2[C@H](CC[C@@H]3[C@@H]2CC[C@]2(C)[C@@H](C(=O)Cc4cnccn4)CC[C@@H]32)C1 [SA-9]	100 to 500	–	–
C[C@@]1(O)CC[C@H]2[C@H](CC[C@@H]3[C@@H]2CC[C@]2(C)[C@@H](C(=O)Cc4cccnc4)CC[C@@H]32)C1 [SA-10]	–	–	< 50
